B1: Solute carrier family 22 member 1 (Rattus norvegicus) (protein)
chain: MPTVDDVLEQVGEFGWFQKQAFLLLCLISASLAPIYVGIVFLGFTPGHYCQNPGVAELSQRCGWSQAEELNYTVPGLGPSDEASFLSQCMRYEVDWNQSTLDCVDPLSSLVANRSQLPLGPCEHGWVYDTPGSSIVTEFNLVCGDAWKVDLFQSCVNLGFFLGSLVVGYIADRFGRKLCLLVTTLVTSVSGVLTAVAPDYTSMLLFRLLQGMVSKGSWVSGYTLITEFVGSGYRRTTAILYQMAFTVGLVGLAGVAYAIPDWRWLQLAVSLPTFLFLLYYWFVPESPRWLLSQKRTTRAVRIMEQIAQKNGKVPPADLKMLCLEEDASEKRSPSFADLFRTPNLRKHTVILMYLWFSCAVLYQGLIMHVGATGANLYLDFFYSSLVEFPAAFIILVTIDRIGRIYPIAASNLVTGAACLLMIFIPHELHWLNVTLACLGRMGATIVLQMVCLVNAELYPTFIRNLGMMVCSALCDLGGIFTPFMVFRLMEVWQALPLILFGVLGLTAGAMTLLLPETKGVALPETIEEAENLGRRKSKAKENTIYLQVQTGKSSST

The molecules below were run on CC[N+](CC)(CC)CC (assay: cells, lysate or membranes named).
Molecule B1 has a Km of 95 µM.

These molecules were tested against T1, Solute carrier family 22 member 1 (Rattus norvegicus, UniProt Q63089) (assay: TP_TRANSPORTER: inhibition of TEA uptake in Xenopus laevis oocytes).
T1 sequence (Q63089 whole entry): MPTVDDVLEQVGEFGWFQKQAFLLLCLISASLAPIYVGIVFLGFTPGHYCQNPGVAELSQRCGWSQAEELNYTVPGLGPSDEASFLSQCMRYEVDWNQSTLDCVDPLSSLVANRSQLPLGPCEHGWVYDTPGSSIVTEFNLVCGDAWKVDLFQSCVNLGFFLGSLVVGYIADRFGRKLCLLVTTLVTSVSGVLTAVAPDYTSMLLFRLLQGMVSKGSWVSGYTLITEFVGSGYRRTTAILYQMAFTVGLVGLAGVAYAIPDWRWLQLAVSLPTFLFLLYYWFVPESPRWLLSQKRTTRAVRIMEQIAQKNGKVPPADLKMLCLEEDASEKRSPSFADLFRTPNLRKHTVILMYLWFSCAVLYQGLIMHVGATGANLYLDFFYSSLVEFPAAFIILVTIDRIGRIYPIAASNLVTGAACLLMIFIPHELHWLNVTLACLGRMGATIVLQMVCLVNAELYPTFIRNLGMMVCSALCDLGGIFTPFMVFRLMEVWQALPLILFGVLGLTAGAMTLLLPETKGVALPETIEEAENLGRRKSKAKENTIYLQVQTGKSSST
Type: functional, cell-based, Oocyte
For C[C@]12C[C@H](O)[C@H]3[C@@H](CCC4=CC(=O)CC[C@@]43C)[C@@H]1CC[C@@H]2C(=O)CO [CORTICOSTERONE], the Ki was over 10 µM. CC[n+]1c(CC2C=C(C)N=C(c3ccccc3)N2C)ccc2ccccc21 (stereo unspecified) [Cyanine-863] gave a Ki of 0.13 µM. COc1cc(C(O)CNC(C)C)ccc1O (stereo unspecified) [METIPRENALINE] showed a Ki of 43 µM. CNC(=O)c1cccnc1 [NICOTINYL METHYLAMIDE] gave a Ki of 1000 µM. Molecule COC(=O)[C@H]1[C@H]2C[C@@H]3c4[nH]c5cc(OC)ccc5c4CCN3C[C@H]2C[C@@H](OC(=O)c2cc(OC)c(OC)c(OC)c2)[C@@H]1OC [RESERPINE] has a Ki of over 20 µM.
